Reference: ChEMBL document CHEMBL3352042, “Synthesis of novel benzimidazole functionalized chiral thioureas and evaluation of their antibacterial and anticancer activities” (Bioorg Med Chem Lett, 2014)
Values after ≈ are worked out from the molar mass of the structure shown. Active and inactive are the calls of the source. The rule behind the calls is not given here.

Legend:
A549 = assay: Cytotoxicity against human A549 cells by MTT assay; type: functional, cell-based
Staphylococcus aureus [1] = assay: Antibacterial activity against Staphylococcus aureus MTCC 96 after 24 hrs by well diffusion method; type: functional
Raoultella planticola = assay: Antibacterial activity against Klebsiella planticola MTCC 530 after 24 hrs by well diffusion method; type: functional
DU-145 = assay: Cytotoxicity against human DU145 cells by MTT assay; type: functional, cell-based
Escherichia coli = assay: Antibacterial activity against Escherichia coli MTCC 739 after 24 hrs by well diffusion method; type: functional
Micrococcus luteus = assay: Antibacterial activity against Micrococcus luteus MTC 2470 after 24 hrs by well diffusion method; type: functional
MCF7 = assay: Cytotoxicity against human MCF7 cells by MTT assay; type: functional, cell-based
Pseudomonas aeruginosa = assay: Antibacterial activity against Pseudomonas aeruginosa MTCC 2453 after 24 hrs by well diffusion method; type: functional
HeLa = assay: Cytotoxicity against human HeLa cells by MTT assay; type: functional, cell-based
Bacillus subtilis = assay: Antibacterial activity against Bacillus subtilis MTCC 121 after 24 hrs by well diffusion method; type: functional
Staphylococcus aureus [2] = assay: Antibacterial activity against Staphylococcus aureus MLS16 MTCC 2940 after 24 hrs by well diffusion method; type: functional
[3] = Homo sapiens, A549, read-out: IC50
[4] = Homo sapiens, DU-145, read-out: IC50
[5] = Homo sapiens, MCF7, read-out: IC50
[6] = Homo sapiens, HeLa, read-out: IC50

Row | SMILES | MIC (Staphylococcus aureus [1]; MTCC 96, 24 h) [mg/L] | MIC (Escherichia coli; MTCC 739, 24 h) [mg/L] | MIC (Micrococcus luteus; MTC 2470, 24 h) [mg/L] | MIC (Pseudomonas aeruginosa; MTCC 2453, 24 h) [mg/L] | MIC (Bacillus subtilis; MTCC 121, 24 h) [mg/L] | MIC (Staphylococcus aureus [2]; MLS16 MTCC 2940, 24 h) [mg/L] | MIC (Staphylococcus aureus [1]) | MIC (Escherichia coli) | MIC (Micrococcus luteus) | MIC (Pseudomonas aeruginosa) | MIC (Bacillus subtilis) | MIC (Staphylococcus aureus [2]) | IC50 (A549; [3]) [µM] | MIC (Raoultella planticola; MTCC 530, 24 h) [mg/L] | IC50 (DU-145; [4]) [µM] | IC50 (MCF7; [5]) [µM] | IC50 (HeLa; [6]) [µM] | MIC (Raoultella planticola) | further results
1 | CC(C)C[C@@H](NC(=S)Nc1cc(C(F)(F)F)cc(C(F)(F)F)c1)c1nc2ccccc2[nH]1 | – | – | – | – | – | – | inactive | inactive | inactive | inactive | inactive | inactive | 10.2 | – | 16.5 | 91 | 10.4 | inactive | –
2 | CC(C)[C@H](NC(=S)Nc1ccccc1)c1nc2ccccc2[nH]1 | > 200 | > 200 | > 200 | > 200 | > 200 | > 200 | – | – | – | – | – | – | 5.2 | > 200 | 12.3 | 9.8 | 11.1 | – | –
3 | C[C@H](NC(=S)Nc1cc(C(F)(F)F)cc(C(F)(F)F)c1)c1nc2ccccc2[nH]1 | 12.5 (≈ 28.9 µM) | > 200 | 25 (≈ 57.8 µM) | > 200 | 25 (≈ 57.8 µM) | 12.5 (≈ 28.9 µM) | – | – | – | – | – | – | 220 | > 200 | 154 | 187 | 133 | – | –
4 | CC(C)C[C@H](NC(=S)Nc1cc(C(F)(F)F)cc(C(F)(F)F)c1)c1nc2ccccc2[nH]1 | 25 (≈ 52.7 µM) | 12.5 (≈ 26.3 µM) | 6.25 (≈ 13.2 µM) | 25 (≈ 52.7 µM) | 12.5 (≈ 26.3 µM) | 12.5 (≈ 26.3 µM) | – | – | – | – | – | – | 17.4 | 12.5 (≈ 26.3 µM) | 17.2 | 16.3 | 18.1 | – | –
5 | CC(C)[C@@H](NC(=S)Nc1cc(C(F)(F)F)cc(C(F)(F)F)c1)c1nc2ccccc2[nH]1 | – | – | – | – | – | – | inactive | inactive | inactive | inactive | inactive | inactive | 22.4 | – | 20.2 | 16.4 | 16.2 | inactive | –
6 | NC[C@@H]1O[C@H](O[C@H]2[C@@H](O)[C@H](O[C@@H]3[C@@H](O)[C@H](N)C[C@H](N)[C@H]3O[C@H]3O[C@H](CN)[C@@H](O)[C@H](O)[C@H]3N)O[C@@H]2CO)[C@H](N)[C@@H](O)[C@@H]1O [FRAMYCETIN] | 12.5 (≈ 20.3 µM) | 12.5 (≈ 20.3 µM) | 12.5 (≈ 20.3 µM) | 12.5 (≈ 20.3 µM) | 12.5 (≈ 20.3 µM) | 12.5 (≈ 20.3 µM) | – | – | – | – | – | – | – | 12.5 (≈ 20.3 µM) | – | – | – | – | –
7 | COc1cccc2c1C(=O)c1c(O)c3c(c(O)c1C2=O)C[C@@](O)(C(=O)CO)C[C@@H]3O[C@H]1C[C@H](N)[C@H](O)[C@H](C)O1 [DOXORUBICIN] | – | – | – | – | – | – | – | – | – | – | – | – | – | – | 0.8 | – | – | – | –
8 | CC(C)[C@H](NC(=S)Nc1cc(C(F)(F)F)cc(C(F)(F)F)c1)c1nc2ccccc2[nH]1 | 25 (≈ 54.3 µM) | 12.5 (≈ 27.1 µM) | 25 (≈ 54.3 µM) | 6.25 (≈ 13.6 µM) | 12.5 (≈ 27.1 µM) | 12.5 (≈ 27.1 µM) | – | – | – | – | – | – | 25.1 | 25 (≈ 54.3 µM) | 26.1 | 24.3 | 28.9 | – | –
9 | CC(C)[C@@H](NC(=S)Nc1ccccc1)c1nc2ccccc2[nH]1 | – | – | – | – | – | – | inactive | inactive | inactive | inactive | inactive | inactive | 31.5 | – | 34.8 | – | – | inactive | IC50 (MCF7; mcf7): Not Active; IC50 (HeLa; hela): Not Active
10 | C[C@@H](NC(=S)Nc1cc(C(F)(F)F)cc(C(F)(F)F)c1)c1nc2ccccc2[nH]1 | – | – | – | – | – | – | inactive | inactive | inactive | inactive | inactive | inactive | 15.2 | – | 17.6 | 10.3 | 16.1 | inactive | –

Second part, led by results:

Row | MIC (Staphylococcus aureus [1]; MTCC 96, 24 h) [mg/L] | MIC (Escherichia coli; MTCC 739, 24 h) [mg/L] | MIC (Micrococcus luteus; MTC 2470, 24 h) [mg/L] | MIC (Pseudomonas aeruginosa; MTCC 2453, 24 h) [mg/L] | MIC (Bacillus subtilis; MTCC 121, 24 h) [mg/L] | MIC (Staphylococcus aureus [2]; MLS16 MTCC 2940, 24 h) [mg/L] | MIC (Staphylococcus aureus [1]) | MIC (Escherichia coli) | MIC (Micrococcus luteus) | MIC (Pseudomonas aeruginosa) | MIC (Bacillus subtilis) | MIC (Staphylococcus aureus [2]) | SMILES | IC50 (A549; [3]) [µM] | MIC (Raoultella planticola; MTCC 530, 24 h) [mg/L] | IC50 (DU-145; [4]) [µM] | IC50 (MCF7; [5]) [µM] | IC50 (HeLa; [6]) [µM] | MIC (Raoultella planticola) | further results
11 | 12.5 (≈ 36.9 µM) | > 200 | > 200 | > 200 | 12.5 (≈ 36.9 µM) | > 200 | – | – | – | – | – | – | CC(C)[C@H](NC(=S)NCc1ccccc1)c1nc2ccccc2[nH]1 | 56.1 | > 200 | 48.5 | 57.8 | 49.9 | – | –
12 | – | – | – | – | – | – | inactive | inactive | inactive | inactive | inactive | inactive | CC(C)C[C@@H](NC(=S)Nc1ccccc1)c1nc2ccccc2[nH]1 | 18.7 | – | 20 | 11.9 | 12.1 | inactive | –
13 | – | – | – | – | – | – | inactive | inactive | inactive | inactive | inactive | inactive | S=C(NCc1ccccc1)N[C@H](Cc1ccccc1)c1nc2ccccc2[nH]1 | 26.5 | – | 24.3 | 32.2 | – | inactive | IC50 (HeLa; hela): Not Active
14 | – | – | – | – | – | – | inactive | inactive | inactive | inactive | inactive | inactive | CC(C)C[C@@H](NC(=S)NCc1ccccc1)c1nc2ccccc2[nH]1 | 22.4 | – | 21.2 | 18.2 | 21.2 | inactive | –
15 | – | – | – | – | – | – | inactive | inactive | inactive | inactive | inactive | inactive | S=C(Nc1ccccc1)N[C@H](Cc1ccccc1)c1nc2ccccc2[nH]1 | 16.2 | – | 18.4 | 9.4 | 10.4 | inactive | –
16 | – | – | – | – | – | – | inactive | inactive | inactive | inactive | inactive | inactive | CC(C)[C@@H](NC(=S)NCc1ccccc1)c1nc2ccccc2[nH]1 | 11.3 | – | 17.3 | 11.1 | 12.3 | inactive | –
17 | – | – | – | – | – | – | inactive | inactive | inactive | inactive | inactive | inactive | C[C@@H](NC(=S)NCc1ccccc1)c1nc2ccccc2[nH]1 | 18.7 | – | 28.7 | 14.3 | – | inactive | IC50 (HeLa; hela): Not Active
18 | 12.5 (≈ 42.2 µM) | > 200 | > 200 | > 200 | 12.5 (≈ 42.2 µM) | > 200 | – | – | – | – | – | – | C[C@H](NC(=S)Nc1ccccc1)c1nc2ccccc2[nH]1 | 188 | > 200 | – | 196 | – | – | IC50 (DU-145; du-145): Not Active; IC50 (HeLa; hela): Not Active
19 | 12.5 (≈ 40.3 µM) | > 200 | > 200 | > 200 | 25 (≈ 80.5 µM) | > 200 | – | – | – | – | – | – | C[C@H](NC(=S)NCc1ccccc1)c1nc2ccccc2[nH]1 | – | > 200 | 226 | 217 | – | – | IC50 (A549; a549): Not Active
20 | 25 (≈ 64.7 µM) | > 200 | > 200 | > 200 | > 200 | > 200 | – | – | – | – | – | – | S=C(NCc1ccccc1)N[C@@H](Cc1ccccc1)c1nc2ccccc2[nH]1 | 32.8 | > 200 | 39.7 | 40.2 | 30.1 | – | –
21 | > 200 | > 200 | > 200 | > 200 | > 200 | > 200 | – | – | – | – | – | – | CC(C)C[C@H](NC(=S)NCc1ccccc1)c1nc2ccccc2[nH]1 | 75.7 | > 200 | 21.1 | – | 31.2 | – | –
22 | 25 (≈ 67.1 µM) | 12.5 (≈ 33.6 µM) | > 200 | > 200 | > 200 | > 200 | – | – | – | – | – | – | S=C(Nc1ccccc1)N[C@@H](Cc1ccccc1)c1nc2ccccc2[nH]1 | – | > 200 | – | – | – | – | IC50 (A549; a549): Not Active; IC50 (DU-145; du-145): Not Active; IC50 (MCF7; mcf7): Not Active; IC50 (HeLa; hela): Not Active
23 | 25 (≈ 73.9 µM) | > 200 | > 200 | > 200 | > 200 | > 200 | – | – | – | – | – | – | CC(C)C[C@H](NC(=S)Nc1ccccc1)c1nc2ccccc2[nH]1 | 28.6 | > 200 | 28.9 | 25.8 | 29.1 | – | –
24 | – | – | – | – | – | – | inactive | inactive | inactive | inactive | inactive | inactive | FC(F)(F)c1cc(NC(=S)N[C@H](Cc2ccccc2)c2nc3ccccc3[nH]2)cc(C(F)(F)F)c1 | 15.8 | – | 17.4 | 12.1 | 13.2 | inactive | –
25 | 12.5 (≈ 24.6 µM) | 12.5 (≈ 24.6 µM) | > 200 | > 200 | > 200 | > 200 | – | – | – | – | – | – | FC(F)(F)c1cc(NC(=S)N[C@@H](Cc2ccccc2)c2nc3ccccc3[nH]2)cc(C(F)(F)F)c1 | 19 | > 200 | 20.4 | 19.2 | 18.2 | – | –
